Key:
IKKε = target: T1, IKKε (Homo sapiens, UniProt Q14164); assay: TR-FRET enzymatic activity assay, IKKε; assay type: biochemical; details: read-out: IKKϵ IC50; note: full length recombinant IKKε at 0.3 nM
T1 construct: TBK1 and IKKε were expressed and purified as full length recombinant proteins; made in house
T1 sequence (Q14164 1-716): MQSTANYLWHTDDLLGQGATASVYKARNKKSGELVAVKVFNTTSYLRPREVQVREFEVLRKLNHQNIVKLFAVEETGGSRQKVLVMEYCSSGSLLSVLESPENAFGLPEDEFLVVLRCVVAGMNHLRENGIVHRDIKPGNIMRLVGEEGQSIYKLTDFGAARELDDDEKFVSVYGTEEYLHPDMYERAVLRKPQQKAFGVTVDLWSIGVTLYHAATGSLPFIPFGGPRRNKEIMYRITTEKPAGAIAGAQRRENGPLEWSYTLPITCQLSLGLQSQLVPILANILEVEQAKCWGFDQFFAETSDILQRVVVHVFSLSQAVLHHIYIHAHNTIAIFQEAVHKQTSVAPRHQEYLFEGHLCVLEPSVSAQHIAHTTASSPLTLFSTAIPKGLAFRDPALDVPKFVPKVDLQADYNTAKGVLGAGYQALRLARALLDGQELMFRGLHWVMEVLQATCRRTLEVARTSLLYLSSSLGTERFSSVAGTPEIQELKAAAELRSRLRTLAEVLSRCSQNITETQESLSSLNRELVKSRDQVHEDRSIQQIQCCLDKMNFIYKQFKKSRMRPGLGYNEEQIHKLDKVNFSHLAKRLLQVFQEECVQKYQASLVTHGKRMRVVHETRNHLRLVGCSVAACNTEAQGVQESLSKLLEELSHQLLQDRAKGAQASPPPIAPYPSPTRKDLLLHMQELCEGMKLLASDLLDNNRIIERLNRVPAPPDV
Procedure: (§1) Biological Assay for TBK1 and IKKε:
Enzymatic activity of IKKε and TBK1 was measured using a homogeneous time resolved fluorescence resonance energy transfer (TR-FRET) assay that monitors enzyme dependent phosphorylation of a biotinylated serine/threonine peptide substrate. […] TBK1 and IKKε were expressed and purified as full length recombinant proteins. Detection reagents for the assay were purchased from Cisbio. […] After an assay reaction time of 240 minutes at 25° C., reactions were terminated with EDTA.
(§2) Amount of phosphorylated peptide was determined by the addition of 125 nM streptavidin XL665 and europium cryptate labeled anti-phospho monoclonal antibody and the resulting TR-FRET signal was recorded on an Envision plate reader (Ex: 340 nm; Em: 615/665 nm; 100 μs delay and 200 μs read window). Data was normalized based on a positive (1 μM Staurosporine) and negative (DMSO) controls and IC50 values calculated from the fit of the dose-response curves to a four-parameter equation. All IC50 values represent geometric mean values of a minimum of four determinations.

TBK1 = target: T2, TBK1 (Homo sapiens, UniProt Q9UHD2); assay: TR-FRET enzymatic activity assay, TBK1; assay type: biochemical; note: full length recombinant TBK1 at 2.5 nM
T2 construct: TBK1 and IKKε were expressed and purified as full length recombinant proteins; made in house
T2 sequence (Q9UHD2 1-729): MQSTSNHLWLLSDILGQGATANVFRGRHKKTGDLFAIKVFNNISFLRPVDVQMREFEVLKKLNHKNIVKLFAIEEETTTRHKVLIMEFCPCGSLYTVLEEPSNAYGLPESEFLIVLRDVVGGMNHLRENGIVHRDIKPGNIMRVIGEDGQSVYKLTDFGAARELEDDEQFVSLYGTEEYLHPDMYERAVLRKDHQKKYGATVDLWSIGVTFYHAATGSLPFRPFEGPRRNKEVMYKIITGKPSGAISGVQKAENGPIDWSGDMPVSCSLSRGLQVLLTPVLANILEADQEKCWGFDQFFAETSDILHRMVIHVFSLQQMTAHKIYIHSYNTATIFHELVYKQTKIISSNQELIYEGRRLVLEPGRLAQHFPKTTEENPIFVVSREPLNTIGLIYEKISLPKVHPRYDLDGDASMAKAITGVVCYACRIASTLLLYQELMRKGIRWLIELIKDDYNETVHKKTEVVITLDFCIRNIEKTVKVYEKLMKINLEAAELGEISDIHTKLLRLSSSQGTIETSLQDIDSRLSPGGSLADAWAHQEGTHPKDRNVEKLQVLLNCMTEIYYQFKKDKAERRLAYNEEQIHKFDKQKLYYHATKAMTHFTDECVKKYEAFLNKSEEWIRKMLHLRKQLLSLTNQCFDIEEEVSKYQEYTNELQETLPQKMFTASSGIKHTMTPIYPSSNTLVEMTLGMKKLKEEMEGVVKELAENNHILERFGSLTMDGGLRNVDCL
Procedure: as §1
Enzymatic activity of IKKε and TBK1 was measured using a homogeneous time resolved fluorescence resonance energy transfer (TR-FRET) assay that monitors enzyme dependent phosphorylation of a biotinylated serine/threonine peptide substrate. An increase in the amount of phosphorylated peptide results in an increase in TR-FRET signal. TBK1 and IKKε were expressed and purified as full length recombinant proteins. Detection reagents for the assay were purchased from Cisbio. […] After an assay reaction time of 240 minutes at 25° C., reactions were terminated with EDTA.
as §2, with “determinations. These assays generally produced results within 3-fold of the reported mean.” for “determinations.”

| Compound | IC50 (IKKε) [nM] | IC50 (TBK1) [nM] |
| --- | --- | --- |
| N#Cc1cc(-c2cc(NC(=O)C3CC3)ncn2)ccc1C(=O)NCC(F)F [Example 53, 2-cyano-4-(6-(cyclopropanecarboxamido)pyrimidin-4-yl)-N-(2,2-difluoroethyl)benzamide] | > 1000 | 762 |
| N#Cc1cc(-c2ccnc(NC(=O)[C@@H]3C[C@H]3c3cccnc3)c2)ccc1O[C@H]1CCN(C(=O)CO)C[C@H]1F (relative stereo) [Example 127] | 33.2 | 12.2 |
| CC(O)[C@@H]1C[C@H]1C(=O)Nc1cc(-c2ccc(OC3CCOCC3)c(C#N)c2)ccn1 (stereo partly drawn) [Example 39, (1,2-trans)-N-(4-(3-cyano-4-((tetrahydro-2H-pyran-4-yl)oxy)phenyl)pyridin-2-yl)-2-(-1-hydroxyethyl)cyclopropane-1-carboxamide] | 73.2 | 96.3 |
| N#Cc1cc(-c2ccnc(NC(=O)C3CC3c3c[nH]cn3)c2)ccc1O[C@H]1CCN(C(=O)CO)C[C@H]1F (stereo partly drawn) [Example 81, N-(4-(3-Cyano-4-(((3R,4S)-3-fluoro-1-(2-hydroxyacetyl)piperidin-4-yl)oxy)phenyl)pyridin-2-yl)-2-(1H-imidazol-4-yl)cyclopropane-1-carboxamide] | 47 | 18.8 |
| Cn1cc([C@@H]2C[C@H]2C(=O)Nc2cc(-c3ccc(O[C@H]4CCN(C(=O)[C@@H](O)CO)CC4(F)F)c(C#N)c3)ccn2)cn1 [Example 131, (1,2-Trans)-N-(4-(3-cyano-4-(((S)-1-((S)-2,3-dihydroxypropanoyl)-3,3-difluoropiperidin-4-yl)oxy)phenyl)pyridin-2-yl)-2-(1-methyl-1H-pyrazol-4-yl)cyclopropane-1-carboxamide] | 11.6 | 6.6 |
| CN(C)C(=O)[C@@H]1C[C@@H]1C(=O)Nc1cc(-c2ccc(O[C@H]3CCN(C(=O)CO)C[C@H]3F)c(C#N)c2)ccn1 [Example 79, (1,2-cis)-N^1-(4-(3-cyano-4-(((3R,4S)-3-fluoro-1-(2-hydroxyacetyl)piperidin-4-yl)oxy)phenyl)pyridin-2-yl)-N^2,N^2-dimethylcyclopropane-1,2-dicarboxamide] | > 1000 | > 1000 |
| Cc1nnc([C@@H]2C[C@H]2C(=O)Nc2cc(-c3ccc(O[C@H]4CCN(C(=O)CO)C[C@H]4F)c(C#N)c3)ccn2)o1 [Example 156, Trans-N-(4-(3-cyano-4-(((3R,4S)-3-fluoro-1-(2-hydroxyacetyl)piperidin-4-yl)oxy)phenyl)pyridin-2-yl)-2-(5-methyl-1,3,4-oxadiazol-2-yl)cyclopropane-1-carboxamide] | 41 | 36.6 |
| COc1cc(-c2ccnc(NC(=O)C3CC3)c2)cc(C#N)c1OC1CCOCC1 [Example 7, N-(4-(3-cyano-5-methoxy-4-((tetrahydro-2H-pyran-4-yl)oxy)phenyl)pyridin-2-yl)cyclopropanecarboxamide] | > 1000 | 492 |
| N#Cc1cc(-c2cc(NC(=O)C3CC3)ncn2)ccc1O[C@H]1CCN(C(=O)CO)C[C@H]1F [Example 19, N-(6-(3-cyano-4-(((3R,4S)-3-fluoro-1-(2-hydroxyacetyl)piperidin-4-yl)oxy)phenyl)pyrimidin-4-yl)cyclopropanecarboxamide] | 53.1 | 15.6 |
| N#Cc1cc(-c2ccnc(NC(=O)[C@@H]3C[C@@H]3F)c2)ccc1O[C@H]1CCN(C(=O)CO)C[C@H]1F [Example 61, (1S,2S)—N-(4-(3-cyano-4-(((3R,4S)-3-fluoro-1-(2-hydroxyacetyl)piperidin-4-yl)oxy)phenyl)pyridin-2-yl)-2-fluorocyclopropanecarboxamide] | 32.2 | 16.4 |
| N#Cc1cc(-c2cc(NC(=O)C3CC3)ncn2)ccc1C(=O)NCC(F)(F)F [Example 54, 2-cyano-4-(6-(cyclopropanecarboxamido)pyrimidin-4-yl)-N-(2,2,2-trifluoroethyl)benzamide] | > 1000 | 883 |
| N#Cc1cc(-c2ccnc(NC(=O)[C@@H]3C[C@@H]3C(=O)O)c2)ccc1O[C@H]1CCN(C(=O)CO)C[C@H]1F [Example 73, (1,2-cis)-2-((4-(3-cyano-4-(((3R,4S)-3-fluoro-1-(2-hydroxyacetyl)piperidin-4-yl)oxy)phenyl)pyridin-2-yl)carbamoyl)cyclopropane-1-carboxylic acid] | > 1000 | 740 |
| C[C@@H]1C[C@H]1C(=O)Nc1cc(-c2ccc(O[C@H]3CCN(C(=O)CO)C[C@H]3F)c(C#N)c2)ccn1 [Example 72, (1R,2R)—N-(4-(3-cyano-4-(((3R,4S)-3-fluoro-1-(2-hydroxyacetyl)piperidin-4-yl)oxy)phenyl)pyridin-2-yl)-2-methylcyclopropane-1-carboxamide] | 43.7 | 16.5 |
| N#Cc1cc(-c2ccnc(NC(=O)C3CC3c3ccco3)c2)ccc1OC1CCOCC1 (stereo not drawn) [Example 51, N-(4-(3-cyano-4-((tetrahydro-2H-pyran-4-yl)oxy)phenyl)pyridin-2-yl)-2-(furan-2-yl)cyclopropane-1-carboxamide] | 426 | 57.8 |
| N#Cc1cc(-c2cc(NC(=O)C3CC3)ncn2)ccc1OC1CCOCC1 [Example 6, N-(6-(3-cyano-4-((tetrahydro-2H-pyran-4-yl)oxy)phenyl)pyrimidin-4-yl)cyclopropanecarboxamide] | 298 | 48.5 |
| N#Cc1cc(-c2ccnc(NC(=O)[C@H]3C[C@H](O)C3)c2)ccc1O[C@H]1CCN(C(=O)CO)C[C@H]1F [Example 80, (1,3-trans)-N-(4-(3-Cyano-4-(((3R,4S)-3-fluoro-1-(2-hydroxyacetyl)piperidin-4-yl)oxy)phenyl)pyridin-2-yl)-3-hydroxycyclobutane-1-carboxamide] | 75.2 | 111 |
| N#Cc1cc(-c2ccnc(NC(=O)C3CC3)c2)ccc1O[C@H]1CCN(C(=O)[C@@H]2CCC(=O)N2)CC1(F)F [Example 14, N-(4-(3-cyano-4-(((S)-3,3-difluoro-1-((S)-5-oxopyrrolidine-2-carbonyl)piperidin-4-yl)oxy)phenyl)pyridin-2-yl)cyclopropanecarboxamide] | 18.5 | 5.5 |
| N#Cc1cc(-c2ccnc(NC(=O)[C@@H]3C[C@H]3c3ccccc3)c2)ccc1OC1CCOCC1 [Example 87, (1R,2R)—N-(4-(3-cyano-4-((tetrahydro-2H-pyran-4-yl)oxy)phenyl)pyridin-2-yl)-2-phenylcyclopropane-1-carboxamide] | 777 | 426 |

From patent publication US10316049B2, “Tank-binding kinase inhibitor compounds” (Gilead Sciences, Inc., priority 2015, dated 2019)
